Laboratory results from ChEMBL document CHEMBL5463729, “Data for DCP probe BAY 1753011” (2023).

What was measured:
Conditions in all cases: Compound concentration 10.0 uM
[1] = molecular target: Glucocorticoid receptor (Homo sapiens) (UniProt P04150)
[2] = molecular target: T1, D(4) dopamine receptor (Homo sapiens) (UniProt P21917)
T1 sequence (whole entry): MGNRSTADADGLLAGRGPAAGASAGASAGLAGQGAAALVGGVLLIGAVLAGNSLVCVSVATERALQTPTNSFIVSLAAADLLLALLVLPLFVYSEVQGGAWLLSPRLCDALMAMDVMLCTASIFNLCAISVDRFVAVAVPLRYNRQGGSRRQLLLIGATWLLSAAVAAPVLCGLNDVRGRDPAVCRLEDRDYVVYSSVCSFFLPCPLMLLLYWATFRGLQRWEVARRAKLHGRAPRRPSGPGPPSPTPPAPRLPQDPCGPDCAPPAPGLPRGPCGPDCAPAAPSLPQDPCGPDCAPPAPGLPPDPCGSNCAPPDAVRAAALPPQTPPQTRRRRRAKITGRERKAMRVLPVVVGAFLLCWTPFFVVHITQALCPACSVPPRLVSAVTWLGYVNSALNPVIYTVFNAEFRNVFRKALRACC

[3] = molecular target: Vascular endothelial growth factor receptor 3 (Homo sapiens) (UniProt P35916); assay: Inhibition of Flt4(h) at 10.0 µM in the Eurofins Kinase panel
Sequence of Vascular endothelial growth factor receptor 3 (Homo sapiens) (P35916 whole entry): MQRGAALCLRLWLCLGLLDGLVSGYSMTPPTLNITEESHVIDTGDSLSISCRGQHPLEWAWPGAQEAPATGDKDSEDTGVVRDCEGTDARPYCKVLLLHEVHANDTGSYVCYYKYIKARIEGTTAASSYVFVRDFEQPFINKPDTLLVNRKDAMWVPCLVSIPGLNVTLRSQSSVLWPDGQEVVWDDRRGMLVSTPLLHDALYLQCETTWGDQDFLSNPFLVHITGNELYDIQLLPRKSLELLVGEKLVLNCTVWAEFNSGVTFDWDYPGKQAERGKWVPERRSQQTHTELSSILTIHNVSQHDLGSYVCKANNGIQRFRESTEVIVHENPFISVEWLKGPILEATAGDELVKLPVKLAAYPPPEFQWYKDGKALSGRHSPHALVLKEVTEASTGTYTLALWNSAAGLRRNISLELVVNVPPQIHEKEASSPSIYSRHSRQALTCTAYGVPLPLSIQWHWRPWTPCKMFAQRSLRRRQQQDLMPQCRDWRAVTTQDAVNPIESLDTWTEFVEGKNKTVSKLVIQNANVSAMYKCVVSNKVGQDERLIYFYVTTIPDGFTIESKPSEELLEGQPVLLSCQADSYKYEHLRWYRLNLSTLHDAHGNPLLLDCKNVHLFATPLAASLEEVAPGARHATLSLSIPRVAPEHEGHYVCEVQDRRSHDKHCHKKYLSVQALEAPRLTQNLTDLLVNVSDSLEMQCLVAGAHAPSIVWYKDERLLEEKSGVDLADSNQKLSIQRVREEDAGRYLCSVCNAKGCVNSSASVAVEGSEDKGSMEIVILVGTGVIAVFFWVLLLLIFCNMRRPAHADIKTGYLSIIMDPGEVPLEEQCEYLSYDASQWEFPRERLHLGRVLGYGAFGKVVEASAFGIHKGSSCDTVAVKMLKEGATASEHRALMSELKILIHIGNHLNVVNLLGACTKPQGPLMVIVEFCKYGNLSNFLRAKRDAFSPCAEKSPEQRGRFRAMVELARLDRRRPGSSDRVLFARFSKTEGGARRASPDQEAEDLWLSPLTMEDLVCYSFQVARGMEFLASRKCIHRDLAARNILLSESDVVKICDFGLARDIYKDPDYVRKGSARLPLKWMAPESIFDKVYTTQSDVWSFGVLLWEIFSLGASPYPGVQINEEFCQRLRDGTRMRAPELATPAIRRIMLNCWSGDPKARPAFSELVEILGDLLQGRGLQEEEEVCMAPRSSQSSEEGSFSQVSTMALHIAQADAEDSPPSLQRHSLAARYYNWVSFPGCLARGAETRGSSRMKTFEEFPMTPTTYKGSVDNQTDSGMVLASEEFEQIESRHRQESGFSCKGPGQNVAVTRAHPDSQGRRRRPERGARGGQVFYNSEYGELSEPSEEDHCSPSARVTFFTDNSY

[4] = molecular target: Serine/threonine-protein kinase Sgk3 (Homo sapiens) (UniProt Q96BR1); assay: Inhibition of SGK3(h) at 10.0 µM in the Eurofins Kinase panel
[5] = molecular target: Calcium/calmodulin-dependent protein kinase type 1 (Homo sapiens) (UniProt Q14012); assay: Inhibition of CaMKI(h) at 10.0 µM in the Eurofins Kinase panel
[6] = molecular target: Tyrosine-protein kinase ZAP-70 (Homo sapiens) (UniProt P43403); assay: Inhibition of ZAP-70(h) at 10.0 µM in the Eurofins Kinase panel
[7] = molecular target: Megakaryocyte-associated tyrosine-protein kinase (Homo sapiens) (UniProt P42679); assay: Inhibition of MATK(h) at 10.0 µM in the Eurofins Kinase panel
Sequence of Megakaryocyte-associated tyrosine-protein kinase (Homo sapiens) (P42679 whole entry): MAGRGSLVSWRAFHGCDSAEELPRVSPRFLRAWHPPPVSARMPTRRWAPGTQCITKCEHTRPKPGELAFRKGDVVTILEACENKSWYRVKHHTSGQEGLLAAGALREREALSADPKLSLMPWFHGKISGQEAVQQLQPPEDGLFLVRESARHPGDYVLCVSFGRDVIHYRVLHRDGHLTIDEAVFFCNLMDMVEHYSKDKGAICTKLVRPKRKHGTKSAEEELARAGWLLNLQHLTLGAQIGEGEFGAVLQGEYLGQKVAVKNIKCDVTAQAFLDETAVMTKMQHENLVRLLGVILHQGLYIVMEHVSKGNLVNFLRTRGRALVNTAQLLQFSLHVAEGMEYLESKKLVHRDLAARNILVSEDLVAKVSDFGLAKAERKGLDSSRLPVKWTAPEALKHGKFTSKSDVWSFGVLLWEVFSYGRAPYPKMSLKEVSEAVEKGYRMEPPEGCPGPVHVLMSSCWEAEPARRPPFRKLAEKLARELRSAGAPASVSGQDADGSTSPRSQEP

[8] = molecular target: Serine/threonine-protein kinase LATS1 (Homo sapiens) (UniProt O95835); assay: Inhibition of LATS1(h) at 10.0 µM in the Eurofins Kinase panel
[9] = molecular target: Protein kinase C beta type (Homo sapiens) (UniProt P05771); assay: Inhibition of PKCbetaII(h) at 10.0 µM in the Eurofins Kinase panel
Sequence of Protein kinase C beta type (Homo sapiens) (P05771 2-671 limits assumed): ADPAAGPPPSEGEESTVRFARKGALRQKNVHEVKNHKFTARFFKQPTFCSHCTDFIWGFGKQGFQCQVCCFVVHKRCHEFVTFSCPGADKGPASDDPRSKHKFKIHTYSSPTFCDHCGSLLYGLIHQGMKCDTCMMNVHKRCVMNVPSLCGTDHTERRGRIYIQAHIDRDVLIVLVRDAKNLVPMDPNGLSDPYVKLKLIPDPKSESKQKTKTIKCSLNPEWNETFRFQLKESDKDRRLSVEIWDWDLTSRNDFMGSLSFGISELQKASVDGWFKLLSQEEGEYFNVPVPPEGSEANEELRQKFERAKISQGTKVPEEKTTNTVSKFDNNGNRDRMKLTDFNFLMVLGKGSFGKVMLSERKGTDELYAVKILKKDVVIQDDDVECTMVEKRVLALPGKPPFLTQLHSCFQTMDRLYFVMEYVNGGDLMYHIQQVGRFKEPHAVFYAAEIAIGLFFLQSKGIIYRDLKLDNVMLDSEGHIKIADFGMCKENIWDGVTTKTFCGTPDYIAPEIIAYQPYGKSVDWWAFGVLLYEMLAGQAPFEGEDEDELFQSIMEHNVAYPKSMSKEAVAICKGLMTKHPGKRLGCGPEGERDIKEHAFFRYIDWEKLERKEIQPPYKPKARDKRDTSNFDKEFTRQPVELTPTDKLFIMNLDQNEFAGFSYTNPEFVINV

[10] = molecular target: NT-3 growth factor receptor (Homo sapiens) (UniProt Q16288); assay: Inhibition of TrkC(h) at 10.0 µM in the Eurofins Kinase panel
[11] = molecular target: Tyrosine-protein kinase Srms (Homo sapiens) (UniProt Q9H3Y6); assay: Inhibition of SRMS(h) at 10.0 µM in the Eurofins Kinase panel
[12] = molecular target: Phosphatidylinositol 4,5-bisphosphate 3-kinase catalytic subunit gamma isoform (Homo sapiens) (UniProt P48736); assay: Inhibition of PI3 Kinase (p120g)(h) at 10.0 µM in the Eurofins Kinase panel
[13] = molecular target: Endothelin receptor type B (Homo sapiens) (UniProt P24530)
[14] = molecular target: Protein kinase C zeta type (Homo sapiens) (UniProt Q05513); assay: Inhibition of PKCzeta(h) at 10.0 µM in the Eurofins Kinase panel
[15] = molecular target: 5-hydroxytryptamine receptor 1B (Homo sapiens) (UniProt P28222)
Sequence of 5-hydroxytryptamine receptor 1B (Homo sapiens) (P28222 whole entry): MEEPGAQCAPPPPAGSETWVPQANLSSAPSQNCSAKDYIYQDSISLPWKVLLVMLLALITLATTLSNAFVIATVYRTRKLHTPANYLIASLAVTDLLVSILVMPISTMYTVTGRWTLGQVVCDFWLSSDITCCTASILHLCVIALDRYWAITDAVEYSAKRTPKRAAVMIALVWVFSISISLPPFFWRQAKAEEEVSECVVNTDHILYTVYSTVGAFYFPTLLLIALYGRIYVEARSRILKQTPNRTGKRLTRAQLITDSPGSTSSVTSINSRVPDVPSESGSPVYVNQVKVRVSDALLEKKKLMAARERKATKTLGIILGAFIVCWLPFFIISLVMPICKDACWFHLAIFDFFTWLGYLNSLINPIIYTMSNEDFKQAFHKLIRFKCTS

[16] = molecular target: Serine/threonine-protein kinase WNK1 (Homo sapiens) (UniProt Q9H4A3); assay: Inhibition of WNK1(h) at 10.0 µM in the Eurofins Kinase panel
[17] = molecular target: Tyrosine-protein kinase Fyn (Homo sapiens) (UniProt P06241); assay: Inhibition of Fyn(h) at 10.0 µM in the Eurofins Kinase panel
[18] = molecular target: Casein kinase I isoform gamma-3 (Homo sapiens) (UniProt Q9Y6M4); assay: Inhibition of CK1gamma3(h) at 10.0 µM in the Eurofins Kinase panel
Sequence of Casein kinase I isoform gamma-3 (Homo sapiens) (Q9Y6M4 whole entry, looked up, canonical isoform): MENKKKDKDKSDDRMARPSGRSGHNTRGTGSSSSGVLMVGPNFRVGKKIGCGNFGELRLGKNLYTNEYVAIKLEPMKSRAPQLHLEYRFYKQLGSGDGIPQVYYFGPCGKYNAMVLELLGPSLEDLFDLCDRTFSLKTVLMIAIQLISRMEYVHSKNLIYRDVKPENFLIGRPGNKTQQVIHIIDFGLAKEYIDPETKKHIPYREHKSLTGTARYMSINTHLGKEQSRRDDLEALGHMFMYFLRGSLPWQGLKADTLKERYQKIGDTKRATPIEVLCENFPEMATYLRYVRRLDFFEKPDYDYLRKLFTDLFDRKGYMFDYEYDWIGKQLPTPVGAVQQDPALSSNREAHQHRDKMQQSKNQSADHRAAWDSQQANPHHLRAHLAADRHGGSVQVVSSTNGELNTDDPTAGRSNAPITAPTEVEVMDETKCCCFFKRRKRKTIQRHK

[19] = molecular target: SRSF protein kinase 3 (Homo sapiens) (UniProt Q9UPE1); assay: Inhibition of MSSK1(h) at 10.0 µM in the Eurofins Kinase panel
[20] = molecular target: cAMP-dependent protein kinase (PKA) (Homo sapiens) (UniProt P22694+P17612+P22612); assay: Inhibition of PKA(h) at 10.0 µM in the Eurofins Kinase panel; type: protein assay
[21] = molecular target: Alpha-1B adrenergic receptor (Homo sapiens) (UniProt P35368)
Sequence of Alpha-1B adrenergic receptor (Homo sapiens) (P35368 whole entry): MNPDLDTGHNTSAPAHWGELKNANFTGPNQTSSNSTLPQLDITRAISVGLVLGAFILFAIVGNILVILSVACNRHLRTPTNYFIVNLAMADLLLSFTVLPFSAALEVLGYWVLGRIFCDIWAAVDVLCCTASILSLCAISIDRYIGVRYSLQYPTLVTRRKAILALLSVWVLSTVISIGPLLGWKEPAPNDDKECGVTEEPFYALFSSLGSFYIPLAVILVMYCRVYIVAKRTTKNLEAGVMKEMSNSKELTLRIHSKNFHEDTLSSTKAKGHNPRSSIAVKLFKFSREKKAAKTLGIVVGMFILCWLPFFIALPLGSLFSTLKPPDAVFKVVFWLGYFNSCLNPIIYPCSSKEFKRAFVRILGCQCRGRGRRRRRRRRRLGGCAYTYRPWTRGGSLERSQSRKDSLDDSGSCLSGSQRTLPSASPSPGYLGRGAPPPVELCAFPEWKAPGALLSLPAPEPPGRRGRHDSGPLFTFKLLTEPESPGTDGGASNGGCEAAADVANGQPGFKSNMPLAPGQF

[22] = molecular target: Serine/threonine-protein kinase 16 (Homo sapiens) (UniProt O75716); assay: Inhibition of STK16(h) at 10.0 µM in the Eurofins Kinase panel
[23] = molecular target: Casein kinase I isoform epsilon (Homo sapiens) (UniProt P49674); assay: Inhibition of CK1epsilon(h) at 10.0 µM in the Eurofins Kinase panel
[24] = molecular target: Protein kinase C beta type (Homo sapiens) (UniProt P05771); assay: Inhibition of PKCbetaI(h) at 10.0 µM in the Eurofins Kinase panel
[25] = molecular target: 5'-AMP-activated protein kinase catalytic subunit alpha-1 (Homo sapiens) (UniProt Q13131); assay: Inhibition of AMPKalpha1(h) at 10.0 µM in the Eurofins Kinase panel
[26] = molecular target: Calcium/calmodulin-dependent protein kinase type II subunit gamma (Homo sapiens) (UniProt Q13555); assay: Inhibition of CaMKIIgamma(h) at 10.0 µM in the Eurofins Kinase panel
Sequence of Calcium/calmodulin-dependent protein kinase type II subunit gamma (Homo sapiens) (Q13555 whole entry): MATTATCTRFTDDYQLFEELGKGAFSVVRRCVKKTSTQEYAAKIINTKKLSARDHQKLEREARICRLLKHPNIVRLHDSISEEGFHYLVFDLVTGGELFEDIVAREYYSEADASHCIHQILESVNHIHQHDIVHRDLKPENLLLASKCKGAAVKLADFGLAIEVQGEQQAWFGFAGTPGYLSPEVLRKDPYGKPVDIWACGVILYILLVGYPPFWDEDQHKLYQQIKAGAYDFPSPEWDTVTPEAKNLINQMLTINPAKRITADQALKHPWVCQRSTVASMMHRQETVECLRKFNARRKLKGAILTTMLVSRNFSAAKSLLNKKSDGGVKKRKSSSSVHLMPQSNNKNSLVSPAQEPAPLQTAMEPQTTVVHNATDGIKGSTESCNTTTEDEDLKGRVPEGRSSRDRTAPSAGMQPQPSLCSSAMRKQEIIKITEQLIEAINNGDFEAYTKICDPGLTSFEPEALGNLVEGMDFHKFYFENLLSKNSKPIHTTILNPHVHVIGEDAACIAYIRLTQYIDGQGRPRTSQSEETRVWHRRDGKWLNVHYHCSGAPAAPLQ

[27] = molecular target: MAP kinase-activated protein kinase 5 (Homo sapiens) (UniProt Q8IW41); assay: Inhibition of PRAK(h) at 10.0 µM in the Eurofins Kinase panel
Sequence of MAP kinase-activated protein kinase 5 (Homo sapiens) (Q8IW41 whole entry): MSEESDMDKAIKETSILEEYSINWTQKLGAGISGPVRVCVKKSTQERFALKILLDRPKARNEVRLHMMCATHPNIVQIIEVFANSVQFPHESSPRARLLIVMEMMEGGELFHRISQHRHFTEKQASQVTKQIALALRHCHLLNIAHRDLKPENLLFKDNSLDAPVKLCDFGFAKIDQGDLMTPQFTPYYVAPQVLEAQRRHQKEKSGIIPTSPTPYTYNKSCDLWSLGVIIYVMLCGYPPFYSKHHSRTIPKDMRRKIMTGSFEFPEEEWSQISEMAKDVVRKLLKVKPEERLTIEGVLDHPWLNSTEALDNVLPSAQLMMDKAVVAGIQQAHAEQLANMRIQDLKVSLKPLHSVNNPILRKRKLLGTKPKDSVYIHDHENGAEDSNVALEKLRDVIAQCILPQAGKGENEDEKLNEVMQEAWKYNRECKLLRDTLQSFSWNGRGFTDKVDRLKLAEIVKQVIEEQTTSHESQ

[28] = molecular target: Receptor tyrosine-protein kinase erbB-2 (Homo sapiens) (UniProt P04626); assay: Inhibition of ErbB2(h) at 10.0 µM in the Eurofins Kinase panel
[29] = molecular target: Protein kinase C delta type (Homo sapiens) (UniProt Q05655); assay: Inhibition of PKCdelta(h) at 10.0 µM in the Eurofins Kinase panel
[30] = molecular target: LIM domain kinase 1 (Homo sapiens) (UniProt P53667); assay: Inhibition of LIMK1(h) at 10.0 µM in the Eurofins Kinase panel
[31] = molecular target: Serine/threonine-protein kinase pim-2 (Homo sapiens) (UniProt Q9P1W9); assay: Inhibition of Pim-2(h) at 10.0 µM in the Eurofins Kinase panel
[32] = molecular target: Ribosomal protein S6 kinase beta-1 (Homo sapiens) (UniProt P23443); assay: Inhibition of p70S6K(h) at 10.0 µM in the Eurofins Kinase panel
[33] = molecular target: Testis-specific serine/threonine-protein kinase 3 (Homo sapiens) (UniProt Q96PN8); assay: Inhibition of TSSK3(h) at 10.0 µM in the Eurofins Kinase panel
[34] = molecular target: Serine/threonine-protein kinase 4 (Homo sapiens) (UniProt Q13043); assay: Inhibition of MST1(h) at 10.0 µM in the Eurofins Kinase panel
[35] = molecular target: LIM domain kinase 2 (Homo sapiens) (UniProt P53671); assay: Inhibition of LIMK2(h) at 10.0 µM in the Eurofins Kinase panel

Row | Compound | inhibition [1] [%] | inhibition [2] [%] | inhibition [3] [%] | inhibition [4] [%] | inhibition [5] [%] | inhibition [6] [%] | inhibition [7] [%] | inhibition [8] [%] | inhibition [9] [%] | inhibition [10] [%] | inhibition [11] [%] | inhibition [12] [%] | inhibition [13] [%] | inhibition [14] [%] | inhibition [15] [%] | inhibition [16] [%] | inhibition [17] [%] | inhibition [18] [%] | inhibition [19] [%] | inhibition [20] [%] | other results
1 | O=c1n(Cc2cncn2-c2cccc(Cl)c2)nc(-c2ccc(Cl)cc2)n1C[C@H](O)C(F)(F)F | 32 | -4.7 | 11.3 | -5.09 | -4.98 | 8.99 | 4.16 | -2.66 | 4.87 | 0.07 | 4.78 | 9.44 | 1 | 8.34 | 7.15 | -5.38 | 5.53 | -8.47 | 9.31 | 2.56 | inhibition [21]: -2.47%; inhibition [22]: -0.13%; inhibition [23]: 4.45%; inhibition [24]: 1%; inhibition [25]: -6.67%; inhibition [26]: 0.32%; inhibition [27]: 9.81%; inhibition [28]: -4.27%; inhibition [29]: -4.61%; inhibition [30]: 0.42%; inhibition [31]: 4.89%; inhibition [32]: 4.83%; inhibition [33]: -6.06%; inhibition [34]: 2.53%; inhibition [35]: 1.5%
2 | C[C@H](O)c1nc(Cn2nc(-c3ccc(Cl)cc3)n(C[C@H](O)C(F)(F)F)c2=O)nn1-c1cccc(Cl)c1 [PECAVAPTAN] | 1 | 19.5 | 4.21 | -6.13 | -5.17 | 2.69 | 0.84 | -5.36 | 2.9 | -6.4 | 7.11 | 14.1 | 5 | 18.7 | 4.87 | 6.35 | -1.76 | -8.75 | -9.95 | -3.46 | inhibition [21]: -5.25%; inhibition [22]: 4.07%; inhibition [23]: 1.26%; inhibition [24]: 2.79%; inhibition [25]: -4.1%; inhibition [26]: -3.01%; inhibition [27]: 11.4%; inhibition [28]: -6.43%; inhibition [29]: 2.12%; inhibition [30]: 0.57%; inhibition [31]: -2.97%; inhibition [32]: 1.02%; inhibition [33]: -7.5%; inhibition [34]: 9.3%; inhibition [35]: 0.25%
